Where a name gives a salt, the structure may show the parent alone.
Molecular target: human D3 receptor (Homo sapiens, UniProt P35462)
Test: Cytosensor Microphysiometer functional activity, antagonist mode against quinpirole (hD3-CHO cells)
Format: cell-based
Settings: against 30 nM quinpirole, acidification rate, read-out: pKb values at the human D3 receptor (tested as antagonists) (converted)

Sequence of human D3 receptor (P35462 whole entry): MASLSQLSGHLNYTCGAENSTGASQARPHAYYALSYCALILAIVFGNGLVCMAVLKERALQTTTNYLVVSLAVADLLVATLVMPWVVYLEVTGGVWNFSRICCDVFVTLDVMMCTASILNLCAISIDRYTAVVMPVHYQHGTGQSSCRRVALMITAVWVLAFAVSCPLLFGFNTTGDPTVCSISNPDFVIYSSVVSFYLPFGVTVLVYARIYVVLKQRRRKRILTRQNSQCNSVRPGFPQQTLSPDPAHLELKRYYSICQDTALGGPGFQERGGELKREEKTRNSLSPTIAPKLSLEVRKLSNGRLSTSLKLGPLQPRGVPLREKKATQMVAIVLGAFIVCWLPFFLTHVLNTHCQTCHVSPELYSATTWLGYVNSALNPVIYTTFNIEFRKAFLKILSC

Row | Kb | SMILES
1 | 0.0316 to 10 nM | CCCN(CCCCNC(=O)c1ccc(-c2ccccc2)cc1)C1CCc2ccccc2C1 (racemic) [Example 10f, N-(4-(4-phenylbenzoylamino)butyl)-2-(R,S)-propylamino-1,2,3,4-tetrahydronaphthalene, hydrochloride]
2 | 0.0316 to 10 nM | CCCN(CCCCNC(=O)c1ccc(-c2ccccc2)cc1)C1CCc2ccc(CC(=O)OCC)cc2C1 (racemic) [Example 3dd, N-(4-(4-Phenylbenzoylamino)butyl)-7-(R,S)-propylamino-5,6,7,8-tetrahydronaphthalene-2-acetic acid, ethyl ester, hydrochloride]
3 | 0.0316 to 10 nM | CCCN(CCCCNC(=O)c1ccc(-c2ccccc2)cc1)C1CCc2cc(CC(=O)OCC)ccc2C1 (racemic) [Example 3cc, N-(4-(4-Phenylbenzoylamino)butyl)-6-(R,S)-propylamino-5,6,7,8-tetrahydronaphthalene-2-acetic acid, ethyl ester, hydrochloride]
4 | 0.0316 to 10 nM | CCCN(CCCCNC(=O)c1ccc(-c2ccccc2)cc1)C1CCc2c(CC(=O)OCC)cccc2C1 (racemic) [Example 3bb, N-(4-(4-Phenylbenzoylamino)butyl)-6-(R,S)-propylamino-5,6,7,8-tetrahydronaphthalene-1-acetic acid, ethyl ester, hydrochloride]

The next lines start with the compound.

Row | SMILES | Kb
5 | CCCN(CCCCNC(=O)c1ccc(-c2ccccc2)cc1)C1CCc2c(cccc2OS(C)(=O)=O)C1 (racemic) [Example 17, 5-Methanesulfonyloxy-N-(4-(4-phenylbenzoylamino)butyl)-2-(R,S)-propylamino-1,2,3,4-tetrahydronaphthalene, hydrochloride] | 0.0316 to 10 nM
6 | CCCN(CCCCNC(=O)c1ccc(-c2ccccc2)cc1)C1CCc2c(Cl)cccc2C1 (racemic) [Example 2k, 5-Chloro-N-(4-(4-phenylbenzoylamino)butyl)-2-(R,S)-propylamino-1,2,3,4-tetrahydronaphthalene, hydrochloride] | 0.0316 to 10 nM
7 | CCCN(CCCCNC(=O)c1ccc(-c2ccccc2)cc1)C1CCc2ccc(Cl)cc2C1 (racemic) [Example 2m, 7-Chloro-N-(4-(4-phenylbenzoylamino)butyl)-2-(R,S)-propylamino-1,2,3,4-tetrahydronaphthalene, hydrochloride] | 0.0316 to 10 nM
8 | CCCN(CCCCNC(=O)c1ccc(-c2ccccc2)cc1)C1Cc2ccccc2C1 [Example 2p, N-(4-(4-Phenylbenzoylamino)butyl)-2-propylaminoindane, hydrochloride] | 0.0316 to 10 nM
9 | CCCN(CCCCNC(=O)c1ccc(-c2ccccc2)cc1)C1CCc2cc(OC(F)(F)F)ccc2C1 (racemic) [Example 2x, N-(4-(4-Phenylbenzoylamino)butyl)-2-(R,S)-propylamino-6-trifluoromethoxy-1,2,3,4-tetrahydronaphthalene, hydrochloride] | 0.0316 to 10 nM
10 | CCCN(CCCCNC(=O)c1ccc(-c2ccccc2)cc1)C1CCc2c(cccc2OS(=O)(=O)C(F)(F)F)C1 (racemic) [Example 15, N-(4-(4-Phenylbenzoylamino)butyl)-2-(R,S)-propylamino-5-trifluoromethanesulfonyloxy-1,2,3,4-tetrahydronaphthalene, hydrochloride] | 0.0316 to 10 nM

— US6008219A, “Bicyclic amine derivatives and their use as anti-psychotic agents” (SmithKline Beech p.l.c., priority 1995, dated 1999)
